Results published in patent US20230295234A1, “ANTIMICROBIAL PEPTIDOMIMETICS” (SPEXIS AG, priority 2020, published 2023).
Bridge positions count the residues as written; N and C are the ends. Square brackets hold non-standard residues; d marks the D form. Peptide text beside a SMILES is read from it. Pro(4R-NH2) = N[C@H]1CN[C@H](C(=O)O)C1; Gly(N-2-aminoethyl) = NCCNCC(=O)O; Hyp = O=C(O)[C@@H]1C[C@@H](O)CN1; Gly(N(CH2)3NH2) = NCCCNCC(=O)O; Pen = CC(C)(S)[C@H](N)C(=O)O; dDab = NCC[C@@H](N)C(=O)O; Dab = NCC[C@H](N)C(=O)O; Nlys = NCCCCNCC(=O)O

Experiments:
[1] = test system: Escherichia coli ATCC 25922; settings: ATCC 25922
Summary of the method: (§1)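 First, bacterial colonies are suspended in saline and adjusted to 0.5 McFarland. Next, the suspension is diluted into cation-adjusted Mueller-Hinton II broth (approx. 5×10^5 CFU/mL). Finally, it is added to two-fold serially diluted peptide, with polysorbate 80 at 0.002% final.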

[2] = test system: Escherichia coli MCR-1 Af 45; settings: MCR-1 Af 45
Summary of the method: as §1

[3] = test system: Klebsiella pneumoniae SSI3010; settings: SSI3010
Summary of the method: as §1

[4] = test system: human red blood cells (hRBC); experiment: Hemolysis of human red blood cells; type: cell-based; settings: red cells of human, 1 h
Summary of the method: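 Percent hemolysis is OD540 of peptide-treated supernatant relative to water-lysed cells. Each peptide was tested at 200 μg/mL against 20% (v/v) washed human erythrocytes. Incubation was 1 h at 37 °C, 300 rpm.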

| Escherichia coli ATCC 25922 MIC [1] [µg/mL] | Escherichia coli MCR-1 Af 45 MIC [2] [µg/mL] | Klebsiella pneumoniae SSI3010 MIC [3] [µg/mL] | Structure (SMILES) | Hemolysis at 0.2 g/L [4] [%] |
| --- | --- | --- | --- | --- |
| 0.125 | 0.0625 | 0.25 | CC[C@H](C)[C@H](NC(=O)CN(CCN)C(=O)[C@@H](NC(=O)[C@@H]1C[C@@H](O)CN1C(=O)CNCCCN)C(C)C)C(=O)N[C@H](C(=O)N[C@@H](Cc1ccc(O)cc1)C(=O)N[C@@H]1C(=O)N[C@@H](CC(N)=O)C(=O)N[C@@H](CCCNC(=N)N)C(=O)N[C@@H](CCN)C(=O)N[C@@H]([C@@H](C)O)C(=O)N[C@H](CCN)C(=O)N[C@@H](CCCCN)C(=O)N[C@H](C(=O)N[C@@H](CCN)C(=O)N[C@@H](CCCNC(=N)N)C(=O)N[C@@H](Cc2ccc(O)cc2)C(=O)O)CSSC1(C)C)[C@@H](C)O [Example 48, Norn-Hyp-Val-Ndab-Ile-Thr-Tyr-Pen-Asn-Arg-Dab-Thr-^DDab-Lys-Cys-Dab-Arg-Tyr] (H-[Gly(N(CH2)3NH2)][Hyp]V[Gly(N-2-aminoethyl)]ITY[Pen]NR[Dab]T[dDab]KC[Dab]RY-OH; disulfide 8-15; N-terminus and C-terminus assumed) | 0 |
| 0.125 | 0.125 | 0.25 | CC[C@H](C)[C@H](NC(=O)CN(CCN)C(=O)[C@@H](NC(=O)[C@@H]1C[C@@H](O)CN1C(=O)CNCCCCN)C(C)C)C(=O)N[C@H](C(=O)N[C@@H](Cc1ccc(O)cc1)C(=O)N[C@@H]1C(=O)N[C@@H](CC(N)=O)C(=O)N[C@@H](CCCNC(=N)N)C(=O)N[C@@H](CCN)C(=O)N[C@@H]([C@@H](C)O)C(=O)N[C@H](CCN)C(=O)N[C@@H](CCCCN)C(=O)N[C@H](C(=O)N[C@@H](CCN)C(=O)N[C@@H](CCCNC(=N)N)C(=O)N[C@@H](Cc2ccc(O)cc2)C(=O)O)CSSC1(C)C)[C@@H](C)O [Example 49, Nlys-Hyp-Val-Ndab-Ile-Thr-Tyr-Pen-Asn-Arg-Dab-Thr-^DDab-Lys-Cys-Dab-Arg-Tyr] (H-[Nlys][Hyp]V[Gly(N-2-aminoethyl)]ITY[Pen]NR[Dab]T[dDab]KC[Dab]RY-OH; disulfide 8-15; N-terminus and C-terminus assumed) | 0 |
| 0.125 | 0.0625 | 0.125 | CC[C@H](C)[C@H](NC(=O)[C@@H]1C[C@@H](O)CN1C(=O)[C@@H](NC(=O)[C@@H]1C[C@@H](N)CN1C(=O)[C@@H](N)CCCCN)C(C)C)C(=O)N[C@H](C(=O)N[C@@H](Cc1ccc(O)cc1)C(=O)N[C@@H]1C(=O)N[C@@H](CC(N)=O)C(=O)N[C@@H](CCCNC(=N)N)C(=O)N[C@@H](CCN)C(=O)N[C@@H]([C@@H](C)O)C(=O)N[C@H](CCN)C(=O)N[C@@H](CCCCN)C(=O)N[C@H](C(=O)N[C@@H](CCN)C(=O)N[C@@H](CCCNC(=N)N)C(=O)N[C@@H](Cc2ccc(O)cc2)C(=O)O)CSSC1(C)C)[C@@H](C)O [Example 50, Lys-Pro((4R)NH2)-Val-Hyp-Ile-Thr-Tyr-Pen-Asn-Arg-Dab-Thr-^DDab-Lys-Cys-Dab-Arg-Tyr] (HELM PEPTIDE1{K.[N[C@@H]1C[C@@H](C(=O)[*:2])N([*:1])C1].V.[Hyp].I.T.Y.[Pen].N.R.[Dab].T.[NCC[C@@H](N[*:1])C(=O)[*:2]].K.C.[Dab].R.Y}$PEPTIDE1,PEPTIDE1,8:R3-15:R3$$$V2.0) | 0 |
| 0.0625 | ≤0.03125 | 0.0625 | CC[C@H](C)[C@H](NC(=O)[C@@H]1C[C@@H](O)CN1C(=O)[C@@H](NC(=O)CN(CCN)C(=O)[C@@H](N)CCCCN)C(C)C)C(=O)N[C@H](C(=O)N[C@@H](Cc1ccc(O)cc1)C(=O)N[C@@H]1C(=O)N[C@@H](CC(N)=O)C(=O)N[C@@H](CCCNC(=N)N)C(=O)N[C@@H](CCN)C(=O)N[C@@H]([C@@H](C)O)C(=O)N[C@H](CCN)C(=O)N[C@@H](CCCCN)C(=O)N[C@H](C(=O)N[C@@H](CCN)C(=O)N[C@@H](CCCNC(=N)N)C(=O)N[C@@H](Cc2ccc(O)cc2)C(=O)O)CSSC1(C)C)[C@@H](C)O [Example 53, Lys-Ndab-Val-Hyp-Ile-Thr-Tyr-Pen-Asn-Arg-Dab-Thr-^DDab-Lys-Cys-Dab-Arg-Tyr] (HELM PEPTIDE1{K.[NCCN(CC(=O)[*:2])[*:1]].V.[Hyp].I.T.Y.[Pen].N.R.[Dab].T.[NCC[C@@H](N[*:1])C(=O)[*:2]].K.C.[Dab].R.Y}$PEPTIDE1,PEPTIDE1,8:R3-15:R3$$$V2.0) | 0 |
| 0.125 | 0.125 | 0.25 | CC[C@H](C)[C@H](NC(=O)[C@@H]1C[C@@H](O)CN1C(=O)[C@@H](NC(=O)CN(CCN)C(=O)CNCCN)C(C)C)C(=O)N[C@H](C(=O)N[C@@H](Cc1ccc(O)cc1)C(=O)N[C@@H]1C(=O)N[C@@H](CC(N)=O)C(=O)N[C@@H](CCCNC(=N)N)C(=O)N[C@@H](CCN)C(=O)N[C@@H]([C@@H](C)O)C(=O)N[C@H](CCN)C(=O)N[C@@H](CCCCN)C(=O)N[C@H](C(=O)N[C@@H](CCN)C(=O)N[C@@H](CCCNC(=N)N)C(=O)N[C@@H](Cc2ccc(O)cc2)C(=O)O)CSSC1(C)C)[C@@H](C)O [Example 54, Ndab-Ndab-Val-Hyp-Ile-Thr-Tyr-Pen-Asn-Arg-Dab-Thr-^DDab-Lys-Cys-Dab-Arg-Tyr] (H-[Gly(N-2-aminoethyl)][Gly(N-2-aminoethyl)]V[Hyp]ITY[Pen]NR[Dab]T[dDab]KC[Dab]RY-OH; disulfide 8-15) | 0 |
| ≤0.03125 | ≤0.03125 | 0.125 | CC[C@H](C)[C@H](NC(=O)[C@@H]1C[C@@H](O)CN1C(=O)[C@@H](NC(=O)CN(CCN)C(=O)CNCCCN)C(C)C)C(=O)N[C@H](C(=O)N[C@@H](Cc1ccc(O)cc1)C(=O)N[C@@H]1C(=O)N[C@@H](CC(N)=O)C(=O)N[C@@H](CCCNC(=N)N)C(=O)N[C@@H](CCN)C(=O)N[C@@H]([C@@H](C)O)C(=O)N[C@H](CCN)C(=O)N[C@@H](CCCCN)C(=O)N[C@H](C(=O)N[C@@H](CCN)C(=O)N[C@@H](CCCNC(=N)N)C(=O)N[C@@H](Cc2ccc(O)cc2)C(=O)O)CSSC1(C)C)[C@@H](C)O [Example 55, Norn-Ndab-Val-Hyp-Ile-Thr-Tyr-Pen-Asn-Arg-Dab-Thr-^DDab-Lys-Cys-Dab-Arg-Tyr] (H-[Gly(N(CH2)3NH2)][Gly(N-2-aminoethyl)]V[Hyp]ITY[Pen]NR[Dab]T[dDab]KC[Dab]RY-OH; disulfide 8-15) | 0 |
| 0.0625 | 0.0625 | 0.125 | CC[C@H](C)[C@H](NC(=O)[C@@H]1C[C@@H](O)CN1C(=O)[C@@H](NC(=O)CN(CCN)C(=O)CNCCCCN)C(C)C)C(=O)N[C@H](C(=O)N[C@@H](Cc1ccc(O)cc1)C(=O)N[C@@H]1C(=O)N[C@@H](CC(N)=O)C(=O)N[C@@H](CCCNC(=N)N)C(=O)N[C@@H](CCN)C(=O)N[C@@H]([C@@H](C)O)C(=O)N[C@H](CCN)C(=O)N[C@@H](CCCCN)C(=O)N[C@H](C(=O)N[C@@H](CCN)C(=O)N[C@@H](CCCNC(=N)N)C(=O)N[C@@H](Cc2ccc(O)cc2)C(=O)O)CSSC1(C)C)[C@@H](C)O [Example 56, Nlys-Ndab-Val-Hyp-Ile-Thr-Tyr-Pen-Asn-Arg-Dab-Thr-^DDab-Lys-Cys-Dab-Arg-Tyr] (H-[Nlys][Gly(N-2-aminoethyl)]V[Hyp]ITY[Pen]NR[Dab]T[dDab]KC[Dab]RY-OH; disulfide 8-15) | 0 |
| 0.25 | 0.125 | 0.25 | CC[C@H](C)[C@H](NC(=O)[C@@H]1C[C@@H](N)CN1C(=O)[C@@H](NC(=O)[C@@H]1C[C@@H](O)CN1C(=O)[C@@H](N)CCCCN)C(C)C)C(=O)N[C@H](C(=O)N[C@@H](Cc1ccc(O)cc1)C(=O)N[C@@H]1C(=O)N[C@@H](CC(N)=O)C(=O)N[C@@H](CCCNC(=N)N)C(=O)N[C@@H](CCN)C(=O)N[C@@H]([C@@H](C)O)C(=O)N[C@H](CCN)C(=O)N[C@@H](CCCCN)C(=O)N[C@H](C(=O)N[C@@H](Cc2ccc(O)cc2)C(=O)N[C@@H](CCCNC(=N)N)C(=O)N[C@@H](Cc2ccc(O)cc2)C(=O)O)CSSC1(C)C)[C@@H](C)O [Example 57, Lys-Hyp-Val-Pro((4R)NH2)-Ile-Thr-Tyr-Pen-Asn-Arg-Dab-Thr-^DDab-Lys-Cys-Tyr-Arg-Tyr] (HELM PEPTIDE1{K.[Hyp].V.[N[C@@H]1C[C@@H](C(=O)[*:2])N([*:1])C1].I.T.Y.[Pen].N.R.[Dab].T.[NCC[C@@H](N[*:1])C(=O)[*:2]].K.C.Y.R.Y}$PEPTIDE1,PEPTIDE1,8:R3-15:R3$$$V2.0) | 0 |
| 0.25 | 0.125 | 0.25 | CC[C@H](C)[C@H](NC(=O)[C@@H]1C[C@@H](N)CN1C(=O)[C@@H](NC(=O)[C@@H]1C[C@@H](O)CN1C(=O)CNCCCN)C(C)C)C(=O)N[C@H](C(=O)N[C@@H](Cc1ccc(O)cc1)C(=O)N[C@@H]1C(=O)N[C@@H](CC(N)=O)C(=O)N[C@@H](CCCNC(=N)N)C(=O)N[C@@H](CCN)C(=O)N[C@@H]([C@@H](C)O)C(=O)N[C@H](CCN)C(=O)N[C@@H](CCCCN)C(=O)N[C@H](C(=O)N[C@@H](Cc2ccc(O)cc2)C(=O)N[C@@H](CCCNC(=N)N)C(=O)N[C@@H](Cc2ccc(O)cc2)C(=O)O)CSSC1(C)C)[C@@H](C)O [Example 58, Norn-Hyp-Val-Pro((4R)NH2)-Ile-Thr-Tyr-Pen-Asn-Arg-Dab-Thr-^DDab-Lys-Cys-Tyr-Arg-Tyr] (H-[Gly(N(CH2)3NH2)][Hyp]V[Pro(4R-NH2)]ITY[Pen]NR[Dab]T[dDab]KCYRY-OH; disulfide 8-15) | 0 |
